In patent publication US20100047233A1, “TREATMENT OF POST-MENOPAUSAL AND POST-HYSTERECTOMY MEDIATED COGNITIVE DISORDERS” (priority 2006, published 2010):
Entries after “also recorded” stand apart in the source; their conditions may differ. Non-standard residues stand in square brackets, D forms with d. Residues, ends and D or L forms follow the SMILES beside them. dPhe(4-Cl) = N[C@H](Cc1ccc(Cl)cc1)C(=O)O; d2Nal = N[C@H](Cc1ccc2ccccc2c1)C(=O)O; dCit = NC(=O)NCCC[C@@H](N)C(=O)O; d3Pal = N[C@H](Cc1cccnc1)C(=O)O

Columns and labels:
C57/B6 female mice [1] = experiment: Morris Water Maze in ovariectomized mice (cetrorelix); format: in vivo
Text: FIG. 13 are graphs illustrating Latency to enter NE quadrant and % Time spent in NE quadrant during the probe trial for animals treated with cetrorelix or saline and sham operated animals (SHAM).
FIG. 14 are plots illustrating the distance swam in NE quadrant during the trial for animals treated with cetrorelix or saline and sham operated animals.
We present preliminary data gathered from a pilot study and that focuses on the effects of cetrorelix on cognition in ovariectomized animals with or without estrogen replacement immediately after surgery. For this pilot 2 month old C57/B6 female mice were ovariectomized, as described above, and then treated with either 0.9% saline and the other half with cetrorelix. In addition we added a SHAM ovariectomized group that received saline and a placebo pallet (n=10). During the last two weeks of the study all animals have been tested for Morris Water Maze performance.
(§1) Additionally, to further determine the memory function and training success in the animals we measured the capacity of the animals to retain the information learned using a probe trial. In this regard, at the end of the last day of training we removed the platform and let the animals swim for 1 minute.

Tg2576 mice [2] = experiment: Y-maze performance in aged Tg2576 mice; format: in vivo; conditions: aged (21 month old) Tg2576 female mice, 3 months, vs saline/placebo
Description: (§2) Figure illustrates the mean % alternations expressed as % change from baseline. To measure spontaneous alternation behavior and exploratory activity, a hippocampal-associated task, we used a Y-maze [32 cm (long)×10 cm (wide) with 26-cm walls]. Tg-LHβ and LHRKO animals were tested as previously described (Joseph et al., 2003). Briefly, each animal (randomized and investigator-blinded) was placed in one of three arms of the Y-maze (alternating arms across animals in each group) and each arm entry was recorded for duration of 5 minutes. An alternation was defined as 3 entries in 3 different arms (i.e., 1, 2, 3 or 2, 3, 1 etc). % number of alternations was calculated as (total alternations/total number of entries−2)×100. The maze was cleaned with ethanol between each animal to minimize odor cues. […] In this initial study we used aged animals to 1) circumvent the estrogen issue, since aged mice, like humans show estropause and 2) to examine the effects of LH ablation once the disease is well established.

Aβ [3] = experiment: Aβ burden (% area stained) in hippocampus of Tg2576 mice; format: in vivo; conditions: vs saline-treated animals
Text: Scale bar, 200 μm. […] In this initial study we used aged animals to 1) circumvent the estrogen issue, since aged mice, like humans show estropause and 2) to examine the effects of LH ablation once the disease is well established.

serum LH = experiment: Serum LH after leuprolide acetate treatment in mice; format: in vivo; conditions: for serum LH: Tg2576 mice, vs saline
Text: (§3) Inset: LHβ mRNA expression in mouse pituitary gland.

LHβ mRNA = LHβ mRNA expression in mouse pituitary gland; format: in vivo; conditions: saline versus 6 and 8 week leuprolide acetate treatment
Text: as §3

C57/B6 female mice [4] = experiment: Y-maze performance in ovariectomized mice; format: in vivo; conditions: OVX mice; for Y-maze performance: leuprolide acetate 7.5 mg/kg for 3 months vs saline, improvement specific to placebo replaced group
Description: as §2, with “To” for “Figure illustrates the mean % alternations expressed as % change from baseline. To”, “addition we added a SHAM ovariectomized group that received saline and a placebo pallet (n=10). During the last two weeks of the” for “this initial”, “all” for “we used aged”, “have been tested for Y-maze” for “to 1) circumvent the estrogen issue, since aged mice, like humans show estropause”, “Morris Water Maze performance.” for “2) to examine the effects of LH ablation once the disease is well established.”

C57/B6 female mice [5] = experiment: Morris Water Maze in ovariectomized mice (leuprolide acetate, estrogen); format: in vivo; conditions: for OVX-associated cognitive decline, length of time taken to locate the invisible platform across days: OVX C57/B6 mice, Morris Water Maze, 3 months treatment
Text: (Significance indicated by: *P+S vs E+S; #=P+S vs P+L; $=P+S vs SHAM; %=P+S vs E+L; at p<0.05).
For this pilot 2 month old C57/B6 female mice from Jackson Labs, were ovariectomized (n=40) them and either replaced them with 90-day time-release estrogen (n=20) or placebo pellets (Innovative research of America, F1) (n=18). […] In addition we added a SHAM ovariectomized group that received saline and a placebo pallet (n=10). During the last two weeks of the study all animals have been tested for Y-maze and Morris Water Maze performance.
As mentioned before, all mice also underwent MWM testing, a measurement of hippocampal function based on the capacity of the animal to find a hidden platform under water by remembering and using spatial cues in the environment.
as §1

Tg2576 mice [6] = conditions: APP transgenic mice, earlier study; cited from earlier work
Aβ [7] = conditions: APP transgenic mice, earlier study; cited from earlier work
AD patients = conditions: high doses, phase II clinical trial; cited from earlier work
[8] = platform removed, 1 minute swim, regardless of replacement regiment

CC(=O)N[C@H](Cc1ccc2ccccc2c1)C(=O)N[C@H](Cc1ccc(Cl)cc1)C(=O)N[C@H](Cc1cccnc1)C(=O)N[C@@H](CO)C(=O)N[C@@H](Cc1ccc(O)cc1)C(=O)N[C@H](CCCNC(N)=O)C(=O)N[C@@H](CC(C)C)C(=O)N[C@@H](CCCNC(=N)N)C(=O)N1CCC[C@H]1C(=O)N[C@H](C)C(N)=O [cetrorelix] (Ac-[d2Nal][dPhe(4-Cl)][d3Pal]SY[dCit]LRP[dA]-NH2)
OVX-dependent cognitive declines, Morris Water Maze (C57/B6 female mice [1]; OVX placebo-implanted mice, cetrorelix vs saline): effective at improving OVX-dependent cognitive declines
rate of learning in Morris Water Maze (C57/B6 female mice [1]; independent of replacement regiment, cetrorelix vs saline): learned at a faster rate
distance swam in NE quadrant, probe trial (C57/B6 female mice [1]; platform removed, 1 minute swim): swam longer distances

CCNC(=O)[C@@H]1CCCN1C(=O)[C@H](CCCNC(=N)N)NC(=O)[C@H](CC(C)C)NC(=O)[C@@H](CC(C)C)NC(=O)[C@H](Cc1ccc(O)cc1)NC(=O)[C@H](CO)NC(=O)[C@H](Cc1c[nH]c2ccccc12)NC(=O)[C@H](Cc1c[nH]cn1)NC(=O)[C@@H]1CCC(=O)N1 [leuprolide acetate]
Y-maze cognitive performance (% alternations, % change from baseline) (Tg2576 mice [2]): significantly attenuates cognitive decline
Aβ burden / plaque load (% area stained in the entire hippocampus) (Aβ [3]): significantly lower; also recorded: decreases Aβ plaque load
serum LH (serum LH): significant decline in serum LH
serum LH (serum LH; listed as Leuprolide acetate): significantly reduces serum LH
time course of serum LH (serum LH; up to 8 weeks following treatment): classical LH modulation pattern by GnRH agonists
LHβ mRNA expression in the pituitary (LHβ mRNA): clear decrease in the expression of LHβ mRNA
Y-maze performance (C57/B6 female mice [4]): significantly improved Y-maze performance
Y-maze performance (C57/B6 female mice [4]; listed as leuprolide): effective at improving OVX-dependent cognitive declines
OVX-associated cognitive decline, length of time taken to locate the invisible platform across days (C57/B6 female mice [5]): as effective as estrogen in rescuing OVX-associated cognition decline
rate of learning in Morris Water Maze (C57/B6 female mice [5]; independent of replacement regiment, vs saline): learned at a faster rate
distance swam in NE quadrant, probe trial (C57/B6 female mice [5]; [8]): swam longer distances
latency to enter NE quadrant, probe trial (C57/B6 female mice [5]; [8]): entered that quadrant earlier
latency to enter platform location, probe trial (C57/B6 female mice [5]; [8]): crossed the invisible platform region more earlier
number of platform crossings, probe trial (C57/B6 female mice [5]; [8]): crossed it more times
Y-maze performance (Tg2576 mice [6]): improves Y-maze performance
amyloid-β load in the hippocampus (Aβ [7]): decreases amyloid-β load
cognitive impairment and activities of daily living (AD patients): stabilization in cognitive impairment and activities of daily living

estrogen
Y-maze performance, estrogen-replaced vs placebo replaced (C57/B6 female mice [4]; saline-treated, 90-day time-release estrogen vs placebo pellets, p=0.07): strong trend
OVX-associated cognitive decline, length of time taken to locate the invisible platform across days (C57/B6 female mice [5]): rescued
